According to patent US20120121591A1 (priority 2009, published 2012):

What was measured:
Format in all cases: cell-based
[1] = system: IFN-g secretion from T cells in human whole blood; conditions: read-out: WB (IFNg) IC50 (nM, Avg)
[2] = system: IL-2 secretion from T cells in human whole blood; conditions: read-out: WB (IL-2) IC50 (nM, Avg)
hKv1.3 = hKv1.3 (Homo sapiens, UniProt P22001); assay: cell-based; conditions: Kv1.3 (IWQ) IC50 (nM, Avg)
Chain of hKv1.3 (P22001 whole entry): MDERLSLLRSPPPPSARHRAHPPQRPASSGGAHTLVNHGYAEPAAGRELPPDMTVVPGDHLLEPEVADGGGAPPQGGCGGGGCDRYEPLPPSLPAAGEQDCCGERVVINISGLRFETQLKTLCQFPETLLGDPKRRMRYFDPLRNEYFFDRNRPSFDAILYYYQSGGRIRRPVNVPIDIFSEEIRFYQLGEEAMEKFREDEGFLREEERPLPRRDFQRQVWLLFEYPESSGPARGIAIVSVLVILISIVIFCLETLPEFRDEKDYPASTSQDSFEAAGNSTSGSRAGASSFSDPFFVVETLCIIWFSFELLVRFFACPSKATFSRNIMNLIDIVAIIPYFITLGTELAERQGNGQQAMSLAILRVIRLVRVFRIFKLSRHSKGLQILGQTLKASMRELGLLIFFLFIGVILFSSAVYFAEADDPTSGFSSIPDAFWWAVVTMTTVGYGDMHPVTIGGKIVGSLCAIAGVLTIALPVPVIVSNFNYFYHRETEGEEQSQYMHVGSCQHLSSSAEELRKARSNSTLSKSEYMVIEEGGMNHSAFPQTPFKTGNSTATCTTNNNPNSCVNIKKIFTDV

Structure (SMILES)	IC50 [1] [nM]	IC50 [2] [nM]	IC50 (hKv1.3) [nM]
CCCC[C@@H]1NC(=O)[C@H](CO)NC(=O)[C@H](Cc2c[nH]cn2)NC(=O)[C@H](CCCCN)NC(=O)[C@@H]2CSSC[C@@H]3NC(=O)[C@H]([C@@H](C)O)NC(=O)[C@H](CCCNC(=N)N)NC(=O)[C@H](CCCNC(=N)N)NC(=O)[C@H](CSSC[C@H](NC(=O)[C@H](CCCNC(=N)N)NC(=O)[C@H](CO)NC(=O)[C@H](CCCCN)NC(=O)[C@@H]4CCCN4C(=O)[C@H]([C@@H](C)CC)NC(=O)[C@H]([C@@H](C)O)NC(=O)[C@H](CC(=O)O)NC(=O)[C@H](CCC(=O)O)NC(=O)[C@@H](NC(=O)[C@H](CO)NC(=O)[C@@H](N)CCCNC(=N)N)CSSC[C@@H](C(N)=O)NC(=O)[C@H]([C@@H](C)O)NC(=O)CNC3=O)C(=O)N[C@@H]([C@@H](C)O)C(=O)N[C@@H](C)C(=O)N[C@@H](Cc3ccccc3)C(=O)N[C@@H](CCCCN)C(=O)N2)NC(=O)[C@H](Cc2ccccc2)NC(=O)[C@H](CO)NC(=O)[C@H](CC(C)C)NC(=O)[C@H](CCCNC(=N)N)NC(=O)[C@H](Cc2ccc(O)cc2)NC(=O)[C@H](CCCCN)NC1=O [[Glu4, Lys16, Nle21,Arg30]ShK-amide]	1.34	1.18	0.132
CC[C@H](C)[C@@H]1NC(=O)[C@@H](NC(=O)[C@H](CCCCN)NC(=O)[C@@H](N)CCCNC(=N)N)CSSC[C@@H](C(=O)O)NC(=O)[C@H]([C@@H](C)O)NC(=O)CNC(=O)[C@@H]2CSSC[C@@H]3NC(=O)[C@H](CCC(N)=O)NC(=O)[C@H](Cc4ccccc4)NC(=O)[C@H](C)NC(=O)[C@H]([C@@H](C)O)NC(=O)[C@H](CSSC[C@H](NC(=O)[C@H](Cc4ccccc4)NC(=O)[C@H](CO)NC(=O)[C@H](CC(C)C)NC(=O)[C@H](CCCNC(=N)N)NC(=O)[C@H](Cc4ccc(O)cc4)NC(=O)[C@H](CCCCN)NC(=O)[C@H](CCSC)NC(=O)[C@H](CO)NC(=O)[C@H](Cc4c[nH]cn4)NC(=O)[C@H](CCCCN)NC3=O)C(=O)N[C@@H](CCCNC(=N)N)C(=O)N[C@@H](CCCCN)C(=O)N[C@@H]([C@@H](C)O)C(=O)N2)NC(=O)[C@H](CCCNC(=N)N)NC(=O)[C@H](CO)NC(=O)[C@H](CCCCN)NC(=O)[C@@H]2CCCN2C(=O)[C@H]([C@@H](C)CC)NC(=O)[C@H]([C@@H](C)O)NC(=O)[C@H](CC(=O)O)NC1=O [[Lys2]ShK]	0.093	0.099	0.149
CCCC[C@@H]1NC(=O)[C@H](CO)NC(=O)[C@H](Cc2c[nH]cn2)NC(=O)[C@H](CCC(=O)O)NC(=O)[C@@H]2CSSC[C@@H]3NC(=O)[C@H]([C@@H](C)O)NC(=O)[C@H](CCCCN)NC(=O)[C@H](CCCNC(=N)N)NC(=O)[C@H](CSSC[C@H](NC(=O)[C@H](CCCNC(=N)N)NC(=O)[C@H](CO)NC(=O)[C@H](CCCCN)NC(=O)[C@@H]4CCCN4C(=O)[C@H]([C@@H](C)CC)NC(=O)[C@H]([C@@H](C)O)NC(=O)[C@H](CC(=O)O)NC(=O)[C@H]([C@@H](C)CC)NC(=O)[C@@H](NC(=O)[C@H](CO)NC(=O)[C@@H](N)CCCNC(=N)N)CSSC[C@@H](C(N)=O)NC(=O)[C@H]([C@@H](C)O)NC(=O)CNC3=O)C(=O)N[C@@H]([C@@H](C)O)C(=O)N[C@@H](C)C(=O)N[C@@H](C)C(=O)N[C@@H](CCCCN)C(=O)N2)NC(=O)[C@H](Cc2ccccc2)NC(=O)[C@H](CO)NC(=O)[C@H](CC(C)C)NC(=O)[C@H](CCCNC(=N)N)NC(=O)[C@H](Cc2ccc(O)cc2)NC(=O)[C@H](CCCCN)NC1=O [[Glu18,Ala15,Lys16,Nle21]ShK-amide]	1.29	1.35	0.202
CC[C@H](C)[C@@H]1NC(=O)[C@@H](NC(=O)[C@H](CO)NC(=O)[C@@H](N)CCCNC(=N)N)CSSC[C@@H](C(=O)O)NC(=O)[C@H]([C@@H](C)O)NC(=O)CNC(=O)[C@@H]2CSSC[C@@H]3NC(=O)[C@H](CCC(N)=O)NC(=O)[C@H](Cc4ccccc4)NC(=O)[C@H](C)NC(=O)[C@H]([C@@H](C)O)NC(=O)[C@H](CSSC[C@H](NC(=O)[C@H](Cc4ccccc4)NC(=O)[C@H](CO)NC(=O)[C@H](CC(C)C)NC(=O)[C@H](CCCNC(=N)N)NC(=O)[C@H](Cc4ccc(O)cc4)NC(=O)[C@H](CCCCN)NC(=O)[C@H](CCSC)NC(=O)[C@H](CO)NC(=O)[C@H](Cc4cccc5ccccc45)NC(=O)[C@H](CCCCN)NC3=O)C(=O)N[C@@H](CCCNC(=N)N)C(=O)N[C@@H](CCCCN)C(=O)N[C@@H]([C@@H](C)O)C(=O)N2)NC(=O)[C@H](CCCNC(=N)N)NC(=O)[C@H](CO)NC(=O)[C@H](CCCCN)NC(=O)[C@@H]2CCCN2C(=O)[C@H]([C@@H](C)CC)NC(=O)[C@H]([C@@H](C)O)NC(=O)[C@H](CC(=O)O)NC1=O [[1-Nal19]ShK]	0.255	0.153	0.277
CC[C@H](C)[C@@H]1NC(=O)[C@@H](NC(=O)[C@H](CO)NC(=O)[C@@H](N)CCCNC(=N)N)CSSC[C@@H](C(=O)O)NC(=O)[C@H]([C@@H](C)O)NC(=O)CNC(=O)[C@@H]2CSSC[C@@H]3NC(=O)[C@H](CCC(N)=O)NC(=O)[C@H](Cc4ccccc4)NC(=O)[C@H](C)NC(=O)[C@H]([C@@H](C)O)NC(=O)[C@H](CSSC[C@H](NC(=O)[C@H](Cc4ccccc4)NC(=O)[C@H](CO)NC(=O)[C@H](CC(C)C)NC(=O)[C@H](CCCNC(=N)N)NC(=O)[C@H](Cc4ccc(O)cc4)NC(=O)[C@H](CCCCN)NC(=O)[C@H](CCSC)NC(=O)[C@H](CO)NC(=O)[C@H](Cc4c[nH]cn4)NC(=O)[C@H](CCCCN)NC3=O)C(=O)N[C@@H](CCCNC(=N)N)C(=O)N[C@@H](CCCCN)C(=O)N[C@@H]([C@@H](C)O)C(=O)N2)NC(=O)[C@H](CCCNC(=N)N)NC(=O)[C@H](CO)NC(=O)[C@H](CCCCN)NC(=O)[C@@H]2CCCN2C(=O)[C@H]([C@@H](C)CC)NC(=O)[C@H]([C@@H](C)O)NC(=O)[C@H](CCCNC(=N)N)NC1=O [[Arg5]ShK]	91.7	47.3	3.3
CCCC[C@@H]1NC(=O)[C@H](CO)NC(=O)[C@H](Cc2c[nH]cn2)NC(=O)[C@H](CCC(=O)O)NC(=O)[C@@H]2CSSC[C@@H]3NC(=O)[C@H]([C@@H](C)O)NC(=O)[C@H](CCCNC(=N)N)NC(=O)[C@H](CCCNC(=N)N)NC(=O)[C@H](CSSC[C@H](NC(=O)[C@H](CCCNC(=N)N)NC(=O)[C@H](CO)NC(=O)[C@H](CCCCN)NC(=O)[C@@H]4CCCN4C(=O)[C@H]([C@@H](C)CC)NC(=O)[C@H]([C@@H](C)O)NC(=O)[C@H](CC(=O)O)NC(=O)[C@H]([C@@H](C)CC)NC(=O)[C@@H](NC(=O)[C@H](CO)NC(=O)[C@@H](N)CCCNC(=N)N)CSSC[C@@H](C(N)=O)NC(=O)[C@H]([C@@H](C)O)NC(=O)CNC3=O)C(=O)N[C@@H]([C@@H](C)O)C(=O)N[C@@H](C)C(=O)N[C@@H](Cc3ccccc3)C(=O)N[C@@H](CCCCN)C(=O)N2)NC(=O)[C@H](Cc2ccccc2)NC(=O)[C@H](CO)NC(=O)[C@H](CC(C)C)NC(=O)[C@H](CCCNC(=N)N)NC(=O)[C@H](Cc2ccc(O)cc2)NC(=O)[C@H](CCCCN)NC1=O [[Glu18, Lys16, Nle21,Arg30]ShK-amide]	0.969	1.22	0.226
CC[C@H](C)[C@@H]1NC(=O)[C@@H](NC(=O)[C@H](CO)NC(=O)[C@@H](N)CCCNC(=N)N)CSSC[C@@H](C(=O)O)NC(=O)[C@H]([C@@H](C)O)NC(=O)CNC(=O)[C@@H]2CSSC[C@@H]3NC(=O)[C@H](CCC(N)=O)NC(=O)[C@H](Cc4ccccc4)NC(=O)[C@H](C)NC(=O)[C@H]([C@@H](C)O)NC(=O)[C@H](CSSC[C@H](NC(=O)[C@H](Cc4ccccc4)NC(=O)[C@H](CO)NC(=O)[C@H](CC(C)C)NC(=O)[C@H](CCCNC(=N)N)NC(=O)[C@H](Cc4ccc(O)cc4)NC(=O)[C@H](CCCCN)NC(=O)[C@H](CCSC)NC(=O)[C@H](CO)NC(=O)[C@H](CCCNC(=N)N)NC(=O)[C@H](CCCCN)NC3=O)C(=O)N[C@@H](CCCNC(=N)N)C(=O)N[C@@H](CCCCN)C(=O)N[C@@H]([C@@H](C)O)C(=O)N2)NC(=O)[C@H](CCCNC(=N)N)NC(=O)[C@H](CO)NC(=O)[C@H](CCCCN)NC(=O)[C@@H]2CCCN2C(=O)[C@H]([C@@H](C)CC)NC(=O)[C@H]([C@@H](C)O)NC(=O)[C@H](CC(=O)O)NC1=O [[Arg19]ShK]	0.116	0.039	0.1
CC[C@H](C)[C@@H]1NC(=O)[C@@H](NC(=O)[C@H](CO)NC(=O)[C@@H](N)CCCNC(=N)N)CSSC[C@@H](C(=O)O)NC(=O)[C@H]([C@@H](C)O)NC(=O)CNC(=O)[C@@H]2CSSC[C@@H]3NC(=O)[C@H](CCC(N)=O)NC(=O)[C@H](CCCCN)NC(=O)[C@H](C)NC(=O)[C@H]([C@@H](C)O)NC(=O)[C@H](CSSC[C@H](NC(=O)[C@H](Cc4ccccc4)NC(=O)[C@H](CO)NC(=O)[C@H](CC(C)C)NC(=O)[C@H](CCCNC(=N)N)NC(=O)[C@H](Cc4ccc(O)cc4)NC(=O)[C@H](CCCCN)NC(=O)[C@H](CCSC)NC(=O)[C@H](CO)NC(=O)[C@H](Cc4c[nH]cn4)NC(=O)[C@H](CCCCN)NC3=O)C(=O)N[C@@H](CCCNC(=N)N)C(=O)N[C@@H](CCCCN)C(=O)N[C@@H]([C@@H](C)O)C(=O)N2)NC(=O)[C@H](CCCNC(=N)N)NC(=O)[C@H](CO)NC(=O)[C@H](CCCCN)NC(=O)[C@@H]2CCCN2C(=O)[C@H]([C@@H](C)CC)NC(=O)[C@H]([C@@H](C)O)NC(=O)[C@H](CC(=O)O)NC1=O [[Lys15]ShK]	0.991	0.465	0.295
